The source made the active and inactive calls. No cut-off for these calls is given here.
Experiments:
RAW264.7 [1] = experiment: Anti-inflammatory activity in mouse RAW264.7 cells assessed as inhibition of LPS-induced nitric oxide production after 24 hrs by Griess method; type: functional, cell-based; conditions: RAW264.7, 24 h
RAW264.7 [2] = experiment: Anti-inflammatory activity in mouse RAW264.7 cells assessed as reduction in iNOS protein expression preincubated for 30 mins before LPS stimulation for 24 hrs by Western blot analysis; type: functional, cell-based
RAW264.7 [3] = experiment: Anti-inflammatory activity in mouse RAW264.7 cells assessed as reduction in COX2 protein expression at 30 uM preincubated for 30 mins before LPS stimulation for 24 hrs by Western blot analysis; type: functional, cell-based
RAW264.7 [4] = experiment: Cytotoxicity against mouse RAW264.7 cells at 30 uM after 24 hrs in presence of LPS by MTT assay; type: cell-based; conditions: raw264.7, 24 h
RAW264.7 [5] = experiment: Cytotoxicity against mouse RAW264.7 cells at 30 uM after 24 hrs in absence of LPS by MTT assay; type: cell-based; conditions: raw264.7, 24 h
RAW264.7 [6] = experiment: Anti-inflammatory activity in mouse RAW264.7 cells assessed as reduction in LPS-induced IL6 mRNA expression preincubated for 30 mins followed by LPS stimulation measured after 8 hrs by real-time qPCR method; type: functional, cell-based
RAW264.7 [7] = experiment: Anti-inflammatory activity in mouse RAW264.7 cells assessed as reduction in LPS-induced TNFalpha mRNA expression preincubated for 30 mins followed by LPS stimulation measured after 8 hrs by real-time qPCR method; type: functional, cell-based
RAW264.7 [8] = experiment: Anti-inflammatory activity in mouse RAW264.7 cells assessed as reduction in LPS-induced COX2 mRNA expression preincubated for 30 mins followed by LPS stimulation measured after 8 hrs by real-time qPCR method; type: functional, cell-based
RAW264.7 [9] = experiment: Anti-inflammatory activity in mouse RAW264.7 cells assessed as reduction in LPS-induced iNOS mRNA expression preincubated for 30 mins followed by LPS stimulation measured after 8 hrs by real-time qPCR method; type: functional, cell-based

| SMILES | IC50 (RAW264.7 [1]) | Activity (RAW264.7 [2]) | Activity (RAW264.7 [3]) | Activity (RAW264.7 [4]) | Activity (RAW264.7 [5]) | Activity (RAW264.7 [6]) | Activity (RAW264.7 [7]) | Activity (RAW264.7 [8]) | Activity (RAW264.7 [9]) |
| --- | --- | --- | --- | --- | --- | --- | --- | --- | --- |
| C#CCCCCCCCC/C=C/[C@H]1C(=O)O[C@@H](C)[C@H]1O [LITSEALACTONE B] | > 30 µM |  |  | Non-Toxic | Non-Toxic |  |  |  |  |
| CCCCCCCCCC/C=C/C1=CC(C)OC1=O (centres undefined) | > 30 µM |  |  | Non-Toxic | Non-Toxic |  |  |  |  |
| CCCCC/C=C/C/C=C/CCCC/C=C/C1=CC(C)OC1=O (centres undefined) | > 30 µM |  |  | Non-Toxic | Non-Toxic |  |  |  |  |
| C#CCCCCCCCCC/C=C1/C(=O)O[C@H](C)[C@H]1O | 6.2 µM | Dose-dependent effect | Active | Non-Toxic | Non-Toxic |  |  |  |  |
| C=CCCCCCCCC/C=C/C1=CC(C)OC1=O (centres undefined) | > 30 µM |  |  | Non-Toxic | Non-Toxic |  |  |  |  |
| C=CCCCCCCCC/C=C/[C@H]1C(=O)O[C@@H](C)[C@H]1O | > 30 µM |  |  | Non-Toxic | Non-Toxic |  |  |  |  |
| CC1=C(O)C(=O)C=C2C1=CC=C1[C@@]2(C)CC[C@@]2(C)[C@@H]3C[C@](C)(C(=O)O)CC[C@]3(C)CC[C@]12C [CELASTROL] | 1 µM |  |  |  |  |  |  |  |  |
| C#CCCCCCCCCC/C=C1\C(=O)O[C@H](C)[C@H]1O | 12.8 µM | Dose-dependent effect |  | Non-Toxic | Non-Toxic |  |  |  |  |
| C=C/C=C/CCCCCCCC/C=C/C1=CC(C)OC1=O (centres undefined) | > 30 µM |  |  | Non-Toxic | Non-Toxic |  |  |  |  |
| C=CCCCCCCCC/C=C/[C@H]1C(=O)O[C@H](C)[C@@H]1O | 14 µM |  |  | Non-Toxic | Non-Toxic |  |  |  |  |
| C#CCCCCCCCC/C=C/C1=CC(C)OC1=O (centres undefined) | > 30 µM |  |  | Non-Toxic | Non-Toxic |  |  |  |  |
| CCCCCCCCCCCC/C=C/C1=CC(C)OC1=O (centres undefined) | > 30 µM |  |  | Non-Toxic | Non-Toxic |  |  |  |  |

Second part, led by results:

| IC50 (RAW264.7 [1]) | SMILES | Activity (RAW264.7 [2]) | Activity (RAW264.7 [3]) | Activity (RAW264.7 [4]) | Activity (RAW264.7 [5]) | Activity (RAW264.7 [6]) | Activity (RAW264.7 [7]) | Activity (RAW264.7 [8]) | Activity (RAW264.7 [9]) |
| --- | --- | --- | --- | --- | --- | --- | --- | --- | --- |
| 4.4 µM | CCCCC/C=C\C/C=C\CCCCC/C=C1/C(=O)O[C@H](C)[C@H]1O | Dose-dependent effect | Active | Non-Toxic | Non-Toxic |  |  |  |  |
| 3 µM | C=CCCCCCCCCC/C=C1/C(=O)O[C@@H](C)[C@H]1O |  |  | Non-Toxic | Non-Toxic |  |  |  |  |
| 5.8 µM | C=C/C=C/CCCCCCCCC/C=C1/C(=O)O[C@H](C)[C@H]1O | Dose-dependent effect | Active | Non-Toxic | Non-Toxic |  |  |  |  |
| 4.5 µM | C=CCCCCCCCCC/C=C1\C(=O)O[C@H](C)[C@H]1O | Dose-dependent effect |  | Non-Toxic | Non-Toxic |  |  |  |  |
| 2.5 µM | CC/C=C/CCCCCCCCC/C=C1/C(=O)O[C@H](C)[C@H]1O |  |  | Non-Toxic | Non-Toxic |  |  |  |  |
| 2.9 µM | CCCCCCCCCCC/C=C1/C(=O)O[C@H](C)[C@H]1O |  |  | Non-Toxic | Non-Toxic |  |  |  |  |
| 3.1 µM | C=CCCCCCCCCC/C=C1/C(=O)O[C@H](C)[C@H]1O | Dose-dependent effect | Active | Non-Toxic | Non-Toxic | Dose-dependent effect | Dose-dependent effect | Dose-dependent effect | Dose-dependent effect |

Source: ChEMBL document CHEMBL4118158, “Lactones from the pericarps of Litsea japonica and their anti-inflammatory activities” (Bioorg Med Chem Lett, 2018)
